Reference: patent publication US8889878B2, “Haloalky-substituted amides as insecticides and acaricides” (Bayer CropScience AG, priority 2009, dated 2014)

Key:
Boophilus microplus [1] = test: Boophilus microplus test (BOOPMI injection), Example 1; assay type: in vivo; settings: application rate 20 μg/animal, injected into abdomen, after 7 days
Experimental: Boophilus microplus Test (BOOPMI Injection) • Solvent: dimethyl sulphoxide To prepare an active ingredient formulation, 10 mg of active ingredient are mixed with 0.5 ml of solvent and the concentrate is diluted with water to the desired concentration. The active ingredient solution was injected into the abdomen (Boophilus microplus), and the animals were transferred to dishes and stored in a climate-controlled room. The efficacy was assessed by the number of fertile eggs laid. After 7 days, the efficacy in % is determined. 100% means that no tick laid fertile eggs.

Ctenocephalides felis = Ctenocephalides felis oral (CTECFE), Example 2; assay type: in vivo; settings: application rate 20 ppm in citrated cow's blood, after 2 days
Experimental: Ctenocephalides felis Oral ([…]) • Solvent: 1 part by weight of dimethyl sulphoxide For the purpose of preparing an active ingredient formulation, 10 mg of active ingredient are mixed with 0.5 ml of dimethyl sulphoxide. A portion of the concentrate was diluted with citrated cow's blood and the desired concentration was prepared. 20 unfed adult fleas (Ctenocephalides felis) are placed into a chamber sealed at the top and bottom with gauze. A metal cylinder with its lower end sealed with Parafilm is placed onto the chamber. The cylinder contains the blood-active ingredient preparation, which can be consumed by the fleas through the Parafilm membrane. After 2 days, the kill rate in % is determined. 100% means that all fleas were killed; 0% means that no fleas were killed.

Lucilia cuprina larvae [2] = test: Lucilia cuprina test (LUCICU), Example 3; assay type: in vivo; settings: application rate 20 ppm, treated horsemeat, after 2 days
Experimental: (§1) Lucilia cuprina Test (LUCICU) • Solvent: dimethyl sulphoxide To prepare an active ingredient formulation, 10 mg of active ingredient are mixed with 0.5 ml of dimethyl sulphoxide, and the concentrate is diluted with water to the desired concentration. Vessels containing horsemeat which has been treated with the active ingredient formulation of the desired concentration are populated with Lucilia cuprina larvae. After 2 days, the kill rate in % is determined. 100% means that all larvae were killed; 0% means that no larvae were killed.

[3] = test system: mustard beetle (Phaedon cochleariae); test: Phaedon test (PHAECO spray treatment), Example 7; assay type: in vivo; settings: application rate 20 g/ha, china cabbage leaf discs sprayed, after 7 days
In short: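 Spray formulation (acetone/DMF with alkylaryl polyglycol ether, diluted in emulsifier-containing water) applied to Chinese cabbage leaf discs, which were dried and then stocked with mustard beetle larvae. Efficacy scored at 7 days as % larvae killed (100% all, 0% none).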

Boophilus microplus [4] = test: Boophilus microplus test (BOOPMI injection), Example 11; assay type: in vivo; settings: application rate 20 μg/animal, injected into abdomen, after 7 days
In short: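 Efficacy rated from fertile egg laying: 100% means none of the ticks laid fertile eggs, read after 7 days. Compound, dissolved and diluted in DMSO, was delivered by abdominal injection, and ticks were kept in dishes under climate control.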

[5] = test system: green peach aphid (Myzus persicae); test: Myzus test (MYZUPE spray treatment), Example 17; assay type: in vivo; settings: china cabbage leaf discs sprayed, after 6 days
In short: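 Efficacy recorded at 6 days as % kill, where 100% means every aphid dead and 0% none. Spray applied to Brassica pekinensis leaf discs bearing mixed-stage aphids; active ingredient dissolved in acetone with dimethylformamide and emulsifier, then diluted with emulsifier-containing water.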

[6] = logP by HPLC on reverse-phase column (EEC Directive 79/831 Annex V.A8); assay type: physicochemical; settings: for logP: HPLC-MS; for chromatographic logP: reverse-phase C18 HPLC column, pH 2.7, HPLC, C18 reverse phase, 43° C., acidic range pH 2.7, calibration with alkan-2-ones
Experimental: The logP values reported in the above Tables and Preparation Examples were determined according to EEC Directive 79/831 Annex V.A8 by HPLC (High Performance Liquid Chromatography) on a reverse-phase column (C18). Temperature 43° C.

Lucilia cuprina larvae [7] = test: Lucilia cuprina test (LUCICU), Example 13; assay type: in vivo; settings: application rate 100 ppm, treated horsemeat, after 2 days
Experimental: as §1, with “prepare an appropriate active ingredient” for “prepare an active ingredient”, “populated with about 20 Lucilia cuprina” for “populated with Lucilia cuprina”

Musca domestica adults = test: Musca domestica test (MUSCDO), Example 14; assay type: in vivo; settings: application rate 100 ppm, treated sponge, after 2 days
Experimental: Musca domestica Test (MUSCDO) • Solvent: dimethyl sulphoxide To prepare an appropriate active ingredient formulation, 10 mg of active ingredient are mixed with 0.5 ml of dimethyl sulphoxide, and the concentrate is diluted with water to the desired concentration. Vessels containing a sponge which has been treated with the active ingredient formulation of the desired concentration are populated with Musca domestica adults. After 2 days, the kill rate in % is determined. 100% means that all flies were killed; 0% means that no flies were killed.

[8] = test system: red spider mite (Tetranychus urticae); test: Tetranychus test, OP-resistant (TETRUR spray treatment), Example 8; assay type: in vivo; settings: application rate 20 g/ha, common bean leaf discs sprayed, after 6 days
In short: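 Bean (Phaseolus vulgaris) leaf discs carrying all stages of OP-resistant Tetranychus urticae sprayed with compound in acetone/DMF with emulsifier, diluted in water to the test concentration. Mortality scored after 6 days as % efficacy (100% = all mites killed).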

[9] = test system: armyworm (Spodoptera frugiperda); test: Spodoptera frugiperda test (SPODFR spray treatment), Example 15; assay type: in vivo; settings: Spodoptera frugiperda, foliar, 168 h; application rate 500 g/ha, maize leaf discs sprayed, after 7 days; read-out: efficacy in %
In short: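 Caterpillars placed on dried, sprayed Zea mays leaf discs; formulation of acetone, dimethylformamide and emulsifier diluted with emulsifier-containing water to test concentration. Percent kill scored on day 7.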

[10] = test system: mustard beetle (Phaedon cochleariae); test: Phaedon test (PHAECO spray treatment), Example 16; assay type: in vivo; settings: Phaedon cochleariae, foliar, china cabbage leaf discs sprayed, after the desired time, read-out: efficacy in %
Experimental: Phaedon Test (PHAECO Spray Treatment)
(§2) • Solvent: 78.0 parts by weight of acetone • 1.5 parts by weight of dimethylformamide • Emulsifier: 0.5 part by weight of alkylaryl polyglycol ether
To prepare an appropriate active ingredient formulation, 1 part by weight of active ingredient is mixed with the stated amounts of solvent and emulsifier, and the concentrate is diluted with emulsifier-containing water to the desired concentration. […]
After the desired time, the efficacy in % is determined. 100% means that all beetle larvae were killed; 0% means that no beetle larvae were killed.

[11] = test system: red spider mite (Tetranychus urticae); test: Tetranychus test; OP-resistant (TETRUR spray treatment), Example 18; assay type: in vivo; settings: Tetranychus urticae, foliar, 144 h, common bean leaf discs sprayed, after 6 days, read-out: efficacy in %
Experimental: Tetranychus Test; OP-Resistant (TETRUR Spray Treatment)
as §2
To prepare an appropriate active ingredient formulation, 1 part by weight of active ingredient is mixed with the stated amounts of solvent and emulsifier, and the concentrate is diluted with emulsifier-containing water to the desired concentration. Leaf discs from the common bean (Phaseolus vulgaris) infested by all stages of the red spider mite (Tetranychus urticae) are sprayed with an active ingredient formulation of the desired concentration.
After 6 days, the efficacy in % is determined. 100% means that all spider mites were killed; 0% means that no spider mites were killed.

| SMILES | efficacy in % (fertile eggs laid) (Boophilus microplus [1]) | kill rate in % (efficacy) (Ctenocephalides felis) | kill rate in % (efficacy) (Lucilia cuprina larvae [2]) | efficacy in % [3] | efficacy in % (fertile eggs laid) (Boophilus microplus [4]) | logP [6] | kill rate in % (efficacy) (Lucilia cuprina larvae [7]) | further results |
| --- | --- | --- | --- | --- | --- | --- | --- | --- |
| Cc1cc(/C=C/C(=O)NC(c2cccc(C(F)(F)F)c2)C(F)(F)F)ccc1C(=O)NCc1ccccn1 (stereo not drawn) [Ia-22] | 100% | 100% | 90% | 100% | 100% | HPLC-MS: logP = 2.65; mass | – | efficacy in % ([5]; application rate 500 g/ha): 100% |
| O=C(/C=C/c1ccc(C(=O)NC2CC2)c(C(F)(F)F)c1)NC(c1cc(Cl)cc(Cl)c1)C(F)(F)F (stereo not drawn) [Ia-24] | 100% | 100% | 80% | – | 100% | HPLC-MS: logP = 3.5; mass | – | – |
| CC(NC(=O)c1ccc(/C=C/C(=O)NC(c2c(F)cccc2F)C(F)(F)F)cc1C(F)(F)F)C(F)(F)F (stereo not drawn) [Ia-29] | 100% | – | – | – | 100% | HPLC-MS: logP = 3.41; mass | 80% | – |
| O=C(/C=C/c1ccc(C(=O)NCc2ccccc2)c(C(F)(F)F)c1)NC(c1cccc(C(F)(F)F)c1)C(F)(F)F (stereo not drawn) [Ia-31] | 100% | 95% | – | – | 100% | HPLC-MS: logP = 3.68; mass | 90% | – |
| O=C(/C=C/c1ccc(C(=O)NC2CC2)c(C(F)(F)F)c1)NC(c1cc(Cl)cc(C(F)(F)F)c1)C(F)(F)F (stereo not drawn) [Ia-40, 4-[(1E,Z)-3-({1-[3-Chloro-5-(trifluoromethyl)phenyl]-2,2,2-trifluoroethyl}amino)-3-oxoprop-1-en-1-yl]-N-cyclopropyl-2-(trifluoromethyl)benzamide] | 100% | 100% | 90% | – | – | – | – | pest or weed control at 0.02 mg (Boophilus microplus [4]; Rhipicephalus microplus, 168 h, read-out: efficacy in % (fertile eggs laid)): 100%; kill rate in % (efficacy) (Musca domestica adults): 85%; chromatographic logP [6]: 3.68 |
| O=C(/C=C/c1ccc(C(=O)NC2CC2)c(Br)c1)NC(c1cccc(C(F)(F)F)c1)C(F)(F)F (stereo not drawn) [Ia-42] | 100% | 100% | 100% | – | 100% | HPLC-MS: logP = 3.23; mass | – | – |
| O=C(/C=C/c1ccc(C(=O)NC2CC2)c(Cl)c1)NC(c1cccc(C(F)(F)F)c1)C(F)(F)F (stereo not drawn) [Ia-43] | 100% | 100% | 100% | 100% | 100% | HPLC-MS: logP = 3.22; mass | – | efficacy in % ([5]; application rate 500 g/ha): 80% |
| O=C(/C=C/c1ccc(C(=O)NCC(F)(F)F)c(Br)c1)NC(c1cccc(C(F)(F)F)c1)C(F)(F)F (stereo not drawn) [Ia-45] | 100% | 98% | 100% | – | 100% | HPLC-MS: logP = 3.60; mass | – | kill rate in % (efficacy) (Musca domestica adults): 100% |
| CN(C(=O)c1ccc(/C=C/C(=O)NC(c2cccc(C(F)(F)F)c2)C(F)(F)F)cc1C(F)(F)F)C1CC1 (stereo not drawn) [Ia-60] | 100% | 100% | 90% | 100% | 100% | HPLC-MS: logP = 3.62; mass | – | efficacy in % [8]: 90%; kill rate in % (efficacy) (Musca domestica adults): 95% |
| O=C(/C=C/c1ccc(C(=O)NCc2ccc(F)cn2)c(C(F)(F)F)c1)NC(c1cccc(C(F)(F)F)c1)C(F)(F)F (stereo not drawn) [Ia-73] | 100% | 95% | – | 100% | 100% | HPLC-MS: logP = 3.31; mass | 80% | efficacy in % [8]: 100% |
| O=C(/C=C/c1ccc(C(=O)NCc2ccc(Cl)nc2)c(C(F)(F)F)c1)NC(c1cccc(C(F)(F)F)c1)C(F)(F)F (stereo not drawn) [Ia-80] | 100% | 100% | – | 100% | 100% | HPLC-MS: logP = 3.65; mass | 80% | – |
| NC(=O)c1ccc(/C=C/C(=O)NC(c2cccc(C(F)(F)F)c2)C(F)(F)F)cc1C(F)(F)F (stereo not drawn) [Ia-142] | – | – | – | – | 100% | HPLC-MS: logP = 2.89; mass | 90% | kill rate in % (efficacy) (Musca domestica adults): 90%; efficacy in % ([5]; application rate 100 g/ha): 100% |
| O=C(/C=C/c1ccc(C(=O)NC2CC2)c(C(F)(F)F)c1)NC(c1cc(F)cc(C(F)(F)F)c1)C(F)(F)F (stereo not drawn) [Ia-229, N-[α,3-Bis(trifluoromethyl)-5-fluorobenzenemethane]-3-trifluoromethyl-4-(N-cyclopropylcarbamoyl)cinnamide] | – | – | – | – | – | – | – | pest or weed control at 500 g/ha [9]: 100%; pest or weed control at 500 g/ha ([10]; application rate 500 g/ha): 100%; pest or weed control at 500 g/ha ([11]; application rate 500 g/ha): 100%; chromatographic logP [6]: 3.59 |
| O=C(/C=C\c1ccc(C(=O)NC2CC2)c(Cl)c1)NC(c1cccc(C(F)(F)F)c1)C(F)(F)F (stereo not drawn) [Ig-1, 2-Chloro-N-cyclopropyl-4-[(1Z)-3-oxo-3-({2,2,2-trifluoro-1-[3-(trifluoromethyl)phenyl]ethyl}-amino)prop-1-en-1-yl]benzamide] | – | – | – | – | – | – | – | pest or weed control at 100 g/ha ([10]; application rate 100 g/ha): 100%; pest or weed control at 100 g/ha ([11]; application rate 100 g/ha): 80%; chromatographic logP [6]: 3.06 |
